Data reported in EPA's ToxRefDB 2.

Legend:
[1] = system: rat; conditions: Sub-acute repeat dose toxicity; sprague dawley; Oral; Gavage/Intubation; dose end: 14 day; group: systemic; systemic / clinical chemistry / 5' nucleotidase / 5' nucleotidase + systemic / clinical chemistry / alanine aminotransferase (alt/sgpt) / …
[2] = system: dog; conditions: Sub-acute repeat dose toxicity; beagle; Oral; Gavage/Intubation; dose end: 14 day; group: systemic; systemic / in life observation / clinical signs / emesis + systemic / in life observation / clinical signs / tremors + systemic / in life …
[3] = system: rabbit; conditions: Sub-acute repeat dose toxicity; new zealand white; Oral; Gavage/Intubation; dose end: 4 day; group: systemic; systemic / in life observation / body weight / body weight + systemic / in life observation / food consumption / food consumption
[4] = system: rat; conditions: Subchronic oral toxicity in rodents, sprague dawley, Gavage/Intubation, dose end: 93 day, group: systemic
[5] = system: dog; conditions: Sub-acute repeat dose toxicity; beagle; Oral; Gavage/Intubation; dose end: 5 day; group: systemic; systemic / in life observation / clinical signs / abnormal feces
[6] = system: rat; conditions: Sub-acute repeat dose toxicity; sprague dawley; Oral; Gavage/Intubation; dose end: 4 day; group: systemic; systemic / in life observation / clinical signs / respiration (rales) + systemic / in life observation / mortality / mortality + systemic / …
[7] = system: rat; conditions: Sub-acute repeat dose toxicity, sprague dawley, Oral, Gavage/Intubation, dose end: 7 day, group: systemic
[8] = system: dog; conditions: Subchronic oral toxicity in nonrodent, beagle, Gavage/Intubation, dose end: 93 day, group: systemic
[9] = system: rabbit; conditions: Sub-acute repeat dose toxicity, new zealand white, Oral, Gavage/Intubation, dose end: 5 day, group: systemic
[10] = system: dog; conditions: Sub-acute repeat dose toxicity, beagle, Oral, Gavage/Intubation, dose end: 5 day, group: systemic
[11] = system: rat; conditions: Developmental neurotoxicity range-finding study; sprague dawley; Oral; Feed; dose end: 22 PND; group: cannot be grouped; systemic / in life observation / clinical signs / tremors
[12] = system: rat; conditions: Subchronic oral toxicity in rodents, sprague dawley, Feed, dose end: 90 day, group: systemic
[13] = system: dog; conditions: Chronic toxicity, beagle, Oral, Capsule, dose end: 52 week, group: systemic
[14] = system: mouse; conditions: Carcinogenicity, cd1, Oral, Feed, dose end: 87 week, group: systemic
[15] = system: dog; conditions: Subchronic oral toxicity in nonrodent, beagle, Capsule, dose end: 13 week
[16] = system: rat; conditions: Combined chronic toxicity/carcinogenicity, sprague dawley, Oral, Feed, dose end: 734 day, group: systemic
[17] = system: rat; conditions: Prenatal developmental toxicity study, sprague dawley, Oral, Gavage/Intubation, dose end: 15 GD
[18] = system: rat; conditions: Prenatal developmental toxicity study, sprague dawley, Oral, Feed, dose end: 20 GD
[19] = system: rat; conditions: Sub-acute repeat dose toxicity, sprague dawley, Oral, Feed, dose end: 28 day, group: systemic
[20] = system: rabbit; conditions: Prenatal developmental toxicity study; new zealand white; Oral; Feed; dose end: 29 GD; group: developmental; developmental / developmental malformation / bone / absent + developmental / developmental malformation / bone / incomplete ossification + …
[21] = system: dog; conditions: Sub-acute repeat dose toxicity; beagle; Oral; Capsule; dose end: 28 day; group: systemic; systemic / pathology microscopic / heart / lesion(s) (nos)
[22] = system: dog; conditions: Chronic toxicity, beagle, Oral, Capsule, dose end: 1 year, group: systemic
[23] = system: rat; conditions: Sub-acute repeat dose toxicity, sprague dawley, Oral, Feed, dose end: 28 day, group: systemic; remark: listed apart in the source
[24] = system: rabbit; conditions: Prenatal developmental toxicity study, new zealand white, Oral, Gavage/Intubation, dose end: 29 GD
[25] = systemic / in life observation / clinical signs / abnormal respiratory sounds + systemic / in life observation / clinical signs / salivation
[26] = systemic / organ weight / adrenal gland / absolute + systemic / in life observation / food consumption / food consumption + systemic / …
[27] = systemic / clinical chemistry / albumin-globulin ratio / albumin-globulin ratio + systemic / clinical chemistry / cholesterol / cholesterol…
[28] = systemic / in life observation / clinical signs / salivation + systemic / pathology microscopic / liver / vacuolization
[29] = systemic / in life observation / clinical signs / abnormal feces + systemic / in life observation / clinical signs / salivation
[30] = systemic / in life observation / clinical signs / emesis + systemic / organ weight / adrenal gland / absolute + systemic / clinical …
[31] = systemic / in life observation / body weight / body weight + systemic / in life observation / clinical signs / erythema
[32] = systemic / in life observation / clinical signs / erythema
[33] = systemic / in life observation / clinical signs / abnormal feces + systemic / in life observation / clinical signs / arrhythmia + systemic…
[34] = systemic / in life observation / clinical signs / salivation
[35] = systemic / in life observation / clinical signs / tremors
[36] = systemic / in life observation / clinical signs / tremors + systemic / hematology / erythrocyte (rbc) count differential / erythrocyte (rbc…
[37] = systemic / pathology microscopic / testes / degeneration
[38] = group: maternal, reproductive / reproductive performance / estrous cycle / abnormal
[39] = group: systemic, systemic / in life observation / clinical signs / tremors + systemic / in life observation / body weight / body weight gain + systemic / in …
[40] = group: developmental, developmental / developmental malformation / ureter / hydroureter
[41] = group: maternal, systemic / in life observation / clinical signs / tremors
[42] = group: developmental, developmental / developmental malformation / bone / unossified
[43] = group: maternal, systemic / in life observation / body weight / body weight gain + systemic / in life observation / clinical signs / hypersensitivity + …
[44] = systemic / in life observation / body weight / body weight + systemic / in life observation / body weight / body weight gain + systemic / in…
[45] = systemic / in life observation / body weight / body weight gain
[46] = systemic / pathology microscopic / heart / lesion(s) (nos) + systemic / pathology microscopic / heart / fibrosis
[47] = group: developmental, developmental / developmental malformation / bone / absent + developmental / developmental malformation / bone / incomplete ossification + …
[48] = group: maternal, reproductive / reproductive performance / aborted / aborted + reproductive / reproductive performance / resorptions / resorptions + systemic…

COc1ccc(C(C)(C)C)cc1CN[C@H]1C2CCN(CC2)[C@H]1C(c1ccccc1)c1ccccc1
LOAEL [1]: > 500 mg/kg/day | NEL [1]: < 150 mg/kg/day | NOAEL [1]: ≥ 500 mg/kg/day | LEL [2]: 20 mg/kg/day | LOAEL [2]: > 20 mg/kg/day | NEL [2]: < 20 mg/kg/day | NOAEL [2]: ≥ 20 mg/kg/day | LOAEL [3]: > 150 mg/kg/day | NEL [3]: 30 mg/kg/day | NOAEL [3]: ≥ 150 mg/kg/day | LEL [4, 25]: 5 mg/kg/day | NEL [4, 25]: < 5 mg/kg/day | LOAEL [4, 26]: > 150 mg/kg/day | NOAEL [4, 26]: ≥ 150 mg/kg/day | LEL [5]: 5 mg/kg/day | LOAEL [5]: > 20 mg/kg/day | NEL [5]: < 5 mg/kg/day | NOAEL [5]: ≥ 20 mg/kg/day | LEL [6]: 300 mg/kg/day | LOAEL [6]: > 300 mg/kg/day | NEL [6]: < 300 mg/kg/day | NOAEL [6]: ≥ 300 mg/kg/day | LOAEL [7, 27]: > 100 mg/kg/day | NOAEL [7, 27]: ≥ 100 mg/kg/day | LEL [7, 28]: 30 mg/kg/day | NEL [7, 28]: < 30 mg/kg/day | LEL [8, 29]: 1 mg/kg/day | NEL [8, 29]: < 1 mg/kg/day | LOAEL [8, 30]: > 20 mg/kg/day | NOAEL [8, 30]: ≥ 20 mg/kg/day | LOAEL [9, 31]: > 150 mg/kg/day | NOAEL [9, 31]: ≥ 150 mg/kg/day | LEL [9, 32]: 5 mg/kg/day | NEL [9, 32]: < 5 mg/kg/day | LOAEL [10, 33]: > 20 mg/kg/day | NOAEL [10, 33]: ≥ 20 mg/kg/day | LEL [10, 34]: 5 mg/kg/day | NEL [10, 34]: < 5 mg/kg/day

Cc1c(COC(=O)[C@@H]2[C@H](/C=C(\Cl)C(F)(F)F)C2(C)C)cccc1-c1ccccc1 [Bifenthrin]
LEL [11]: 9.3 mg/kg/day | LOAEL [11]: > 9.3 mg/kg/day | NEL [11]: 7.4 mg/kg/day | NOAEL [11]: ≥ 9.3 mg/kg/day | NEL ([12]; systemic / in life observation / body weight / body weight + systemic / in life observation / body weight / body weight gain): 17.2 mg/kg/day | LOAEL [12, 35]: 7.5 mg/kg/day | NOAEL ([12]; systemic / in life observation / clinical signs / tremors + systemic / clinical chemistry / potassium / potassium + systemic / clinical …): 3.8 mg/kg/day | LOAEL [13, 35]: 3 mg/kg/day | LEL ([13]; systemic / in life observation / clinical signs / tremors + systemic / clinical chemistry / sodium / sodium): 3 mg/kg/day | NEL [13, 36]: 1.5 mg/kg/day | NOAEL [13, 36]: 1.5 mg/kg/day | LOAEL [14, 35]: 25.6 mg/kg/day | NOAEL ([14]; systemic / in life observation / clinical signs / tremors + systemic / pathology microscopic / liver / adenoma/carcinoma combined + systemic…): 6.7 mg/kg/day | LEL [14, 37]: 6.7 mg/kg/day | NEL [14, 37]: < 6.7 mg/kg/day | LEL [15, 38]: 10 mg/kg/day | LOAEL [15, 38]: > 20 mg/kg/day | NEL [15, 38]: 5 mg/kg/day | NOAEL [15, 38]: ≥ 20 mg/kg/day | LOAEL ([15]; group: systemic, systemic / in life observation / clinical signs / tremors): 5 mg/kg/day | NEL [15, 39]: 2.5 mg/kg/day | NOAEL [15, 39]: 2.5 mg/kg/day | LEL ([15]; group: systemic, systemic / in life observation / clinical signs / tremors + systemic / in life observation / clinical signs / ataxia): 5 mg/kg/day | LOAEL [16, 35]: 6.1 mg/kg/day | NOAEL ([16]; systemic / in life observation / clinical signs / tremors + systemic / in life observation / body weight / body weight + systemic / in life …): 3 mg/kg/day | LEL ([16]; systemic / organ weight / kidney / relative to body weight + systemic / organ weight / liver / relative to body weight): 4.7 mg/kg/day | NEL ([16]; systemic / organ weight / kidney / relative to body weight + systemic / organ weight / liver / relative to body weight + systemic / in life …): 2.3 mg/kg/day | LEL [17, 40]: 2 mg/kg/day | LOAEL [17, 40]: 2 mg/kg/day | NEL [17, 40]: 1 mg/kg/day | NOAEL [17, 40]: 1 mg/kg/day | LEL [17, 41]: 2 mg/kg/day | LOAEL [17, 41]: 2 mg/kg/day | NEL [17, 41]: 1 mg/kg/day | NOAEL [17, 41]: 1 mg/kg/day | LEL [18, 42]: 16.3 mg/kg/day | LOAEL [18, 42]: > 16.3 mg/kg/day | NEL [18, 42]: 7.4 mg/kg/day | NOAEL [18, 42]: ≥ 16.3 mg/kg/day | LEL [18, 43]: 16.3 mg/kg/day | LOAEL [18, 43]: 16.3 mg/kg/day | NEL [18, 43]: 7.4 mg/kg/day | NOAEL [18, 43]: 7.4 mg/kg/day

Cn1cnc2c1c(=O)[nH]c(=O)n2C [Theobromine]
LOAEL [19, 44]: > 492 mg/kg/day | NOAEL [19, 44]: ≥ 492 mg/kg/day | LEL [19, 45]: 94 mg/kg/day | NEL [19, 45]: < 94 mg/kg/day | LEL [20]: 41 mg/kg/day | LOAEL [20]: > 63 mg/kg/day | NEL [20]: 21 mg/kg/day | NOAEL [20]: ≥ 63 mg/kg/day | LEL [21]: 100 mg/kg/day | LOAEL [21]: > 150 mg/kg/day | NEL [21]: 75 mg/kg/day | NOAEL [21]: ≥ 150 mg/kg/day | LEL ([22]; systemic / pathology microscopic / heart / lesion(s) (nos)): 100 mg/kg/day | LOAEL [22, 46]: > 150 mg/kg/day | NOAEL [22, 46]: ≥ 150 mg/kg/day | LOAEL [23, 44]: > 912 mg/kg/day | NOAEL [23, 44]: ≥ 912 mg/kg/day | LEL ([23]; systemic / in life observation / body weight / body weight + systemic / in life observation / food consumption / food consumption): 389 mg/kg/day | NEL ([23]; systemic / in life observation / body weight / body weight + systemic / in life observation / food consumption / food consumption + systemic…): 200 mg/kg/day | LEL ([24]; group: developmental, developmental / developmental malformation / bone / absent + developmental / developmental malformation / bone / incomplete ossification): 75 mg/kg/day | LOAEL [24, 47]: > 200 mg/kg/day | NEL [24, 47]: 25 mg/kg/day | NOAEL [24, 47]: ≥ 200 mg/kg/day | LOAEL [24, 48]: > 200 mg/kg/day | NEL [24, 48]: 25 mg/kg/day | NOAEL [24, 48]: ≥ 200 mg/kg/day | LEL ([24]; group: maternal, reproductive / reproductive performance / resorptions / resorptions + reproductive / offspring survival early / dead fetuses / dead fetuses): 75 mg/kg/day
